Results reported in US5883097A, “Soluble azole antifungal salt” (Schering Corporation, priority 1998, dated 1999).
Where a name gives a salt, the structure may show the parent alone. One block for each compound: values may come before it.

Columns and labels:
[1] = Solubility in aqueous lactic acid solution / pharmaceutically acceptable carriers; assay type: physicochemical
Solubility in water = assay type: physicochemical
Experimental: (§1) Only 1-2 mg of the hydrochloride salt dissolves in 1 mL of water, and unacceptably large volumes of water would be required for delivery of an effective dose. Furthermore, only in an aqueous hydrochloric acid solution at the physiologically unacceptable pH of 1-1.5 does enough of the hydrochloride acid addition salt of the compound of formula I dissolve to provide a suitably concentrated solution useful for intravenous use.

[2] = In vivo conversion into the alcohol of formula II
[3] = Solubility in aqueous hydrochloric acid solution; assay type: physicochemical; settings: only in an aqueous hydrochloric acid solution; physiologically unacceptable pH
Experimental: as §1

[4] = test system: cytochrome P-450 liver drug metabolizing enzymes; assay: Induction of cytochrome P-450 liver drug metabolizing enzymes, in vivo rat model; settings: oral administration
[5] = Serum levels following oral dosing in mice; settings: methyl cellulose formulation
Aspergillus = settings: SDB, geometric mean MIC and MFC
[6] = Serum levels following oral dosing in rats; settings: methyl cellulose formulation
[7] = Serum levels following oral dosing in dogs; settings: methyl cellulose formulation
[8] = Serum half life and tissue distribution following O.D. dosing
[9] = Serum levels following oral dosing in monkeys; settings: methyl cellulose formulation

solubility in pharmaceutically acceptable carriers, especially aqueous lactic acid solutions ([1]; aqueous lactic acid solutions): surprisingly soluble | solubility in aqueous lactic acid solution at physiologically acceptable pH ([1]; pH of at least about 3 to 3.5): soluble | solubility in water (Solubility in water; listed as lactic acid addition salt): water soluble | in vivo conversion into the corresponding alcohol of formula II [2]: readily convertible in vivo
Compound: CCC(C(C)OC(=O)CN)n1ncn(-c2ccc(N3CCN(c4ccc(OCC5COC(Cn6cncn6)(c6ccc(F)cc6F)C5)cc4)CC3)cc2)c1=O (single isomer, unassigned; (-))

pH of aqueous hydrochloric acid at which enough salt dissolves to provide a suitably concentrated solution for intravenous use [3]: 1-1.5 | solubility in water (Solubility in water; Hydrochloride): sparingly soluble | solubility (Solubility in water; read-out: amount of salt dissolving in 1 mL of water): 1000 to 2000 µg/mL
Compound: CCC(C(C)OC(=O)CN)n1ncn(-c2ccc(N3CCN(c4ccc(OCC5COC(Cn6cncn6)(c6ccc(F)cc6F)C5)cc4)CC3)cc2)c1=O (single isomer, unassigned; (-)) [Hydrochloride]

Compound: CCC(C(C)O)n1ncn(-c2ccc(N3CCN(c4ccc(OCC5COC(Cn6cncn6)(c6ccc(F)cc6F)C5)cc4)CC3)cc2)c1=O [compound of formula II, -(2 R-cis)-4-[4-[4-[4-[[-5-(2,4-Difluorophenyl)-tetrahydro-5-(1 H-1,2,4-triazol-1-ylmethyl)furan-3-yl]methoxy]phenyl]-1-piperazinyl]phenyl]-2-4-dihydro-2-[(1 S)-ethyl-2(S)-hydroxypropyl]-3 H-1,2,4-triazol-3-one]
induction of cytochrome P-450 liver drug metabolizing enzymes [4]: not an inducer | serum levels compared to azoles of similar structure, mice [5]: consistently higher serum levels | in vitro antifungal activity against 37 species of Aspergillus compared to fluconazole (Aspergillus): superior antifungal in vitro activity | serum levels compared to azoles of similar structure, rats [6]: consistently higher serum levels | serum levels compared to azoles of similar structure, dogs [7]: consistently higher serum levels | serum half lives [8]: very long serum half lives | tissue distribution [8]: good tissue distribution | serum levels compared to azoles of similar structure, monkeys [9]: consistently higher serum levels
